For one experiment, the system named is Adherent macrophages. Briefly: Effect of MAPK inhibitors on IL-6 production by stimulated macrophages. The format is cell-based, murine. The following applies: 25 μM inhibitor 30 min pre-incubation, then ACE 3.4 mg/mL 48 hours. The protocol:
Adherent macrophages were pre-incubated with media, vehicle (0.06% DMSO; Sigma), 25 μM ERK inhibitor, (PD98059; Calbiochem), or 25 μM p38 inhibitor (SB203580; Calbiochem) for 30 min at 37° C. before being treated with test agent. The cells were further incubated for 48 hours with ACE (3.4 mg/mL) or Zymosan (0.01%). DMSO was used as a vehicle control. IL-6 production was assayed using ELISA.

The subject of experiment [1] is Peritoneal elicited macrophages. Description: Endotoxin test: Polymyxin B pre-treatment, IL-6 production by macrophages. The experiment is classed as cell-based. The following applies: Polymyxin B 20 μg/ml 30 min, then LPS 10 ηg/ml. The protocol: To test for LPS contamination, macrophages were pre-treated with Polymyxin B, followed by incubation with ACE. Peritoneal elicited macrophages were pre-incubated with media or LPS inhibitor Polymyxin B (Calbiochem) at 20 μg/ml for 30 min at 37° C. Cells were further incubated with LPS (10 ηg/ml) or ACE (3.4 mg/ml). […] Results are shown as levels of IL-6 production, which were measured using ELISA. Means and standard deviations of triplicate samples are shown. Data are representative of three separate experiments.

As for `COc1cccc(-c2cc(=O)c3ccccc3o2)c1N` [PD98059], in the experiment with Adherent macrophages, the “IL-6 production by ACE treated macrophages in presence of inhibitor” value was “marked decreases of IL-6 production”. Regarding `C[S+]([O-])c1ccc(-c2nc(-c3ccncc3)c(-c3ccc(F)cc3)[nH]2)cc1` (stereo not drawn) [SB203580], the “IL-6 production by ACE treated macrophages in presence of inhibitor” value in the experiment with Adherent macrophages is listed as “marked decreases of IL-6 production”. As for Polymyxin B, the “reduction of LPS activity (IL-6 production)” value in experiment [1] is roughly 80%.

(Values after patent US20100285053A1, “Immunosuppressive Extract Of Cordyceps Sinensis And Uses Thereof” (Dalhousie University, priority 2006, published 2010).)
